How the values were obtained:
Experiment in all cases: relative viability (nuclei count vs DMSO), 5 days (fraction); higher = more cells survive
RU-SKI 43 + Palbociclib = compound: CC[C@@H](C)CNCC(=O)N1CCC2=C([C@@H]1COC3=CC=CC(=C3)C)C=CS2 [RU-SKI 43] + CC(=O)c1c(C)c2cnc(Nc3ccc(N4CCNCC4)cn3)nc2n(C2CCCC2)c1=O [Palbociclib] (partner 0.5 µM)
Summary of the method: (§1)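 For relative viability, nuclei counts in treated wells were divided by those in vehicle wells. Lung cancer cell lines had been pin-tool dosed in 1536-well plates the day after seeding and cultured for 5 days, then fixed and stained in one step (final 0.05% Triton X-100, 1% formaldehyde, 1 ug/ml Hoechst) and imaged at 4×. Doses were one drug alone or a fixed anchor-drug dose plus five library-drug doses (not always all listed) in √10 steps, and values are duplicate-plate medians.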

Irinotecan + Phenformin = compound: CCc1c2c(nc3ccc(OC(=O)N4CCC(N5CCCCC5)CC4)cc13)-c1cc3c(c(=O)n1C2)COC(=O)[C@]3(O)CC [Irinotecan] + N=C(N)NC(=N)NCCc1ccccc1 [Phenformin] (partner 250 µM)
Summary of the method: as §1

Irinotecan + Olaparib = compound: CCc1c2c(nc3ccc(OC(=O)N4CCC(N5CCCCC5)CC4)cc13)-c1cc3c(c(=O)n1C2)COC(=O)[C@]3(O)CC [Irinotecan] + O=C(c1cc(Cc2n[nH]c(=O)c3ccccc23)ccc1F)N1CCN(C(=O)C2CC2)CC1 [Olaparib] (partner 8 µM)
Summary of the method: as §1

MK-8033 + Phenformin = compound: Cn1cc(-c2cnc3ccc4ccc(CS(=O)(=O)NCc5ccccn5)cc4c(=O)c3c2)cn1 [MK-8033] + N=C(N)NC(=N)NCCc1ccccc1 [Phenformin] (partner 250 µM)
Summary of the method: as §1

| Cell Line | relative viability (RU-SKI 43 + Palbociclib; first compound 0.1 µM) | relative viability (RU-SKI 43 + Palbociclib; first compound 0.3162 µM) | relative viability (RU-SKI 43 + Palbociclib; first compound 1 µM) | relative viability (RU-SKI 43 + Palbociclib; first compound 3.162 µM) | relative viability (RU-SKI 43 + Palbociclib; first compound 10 µM) | relative viability (Irinotecan + Phenformin; first compound 0.6325 µM) | relative viability (Irinotecan + Phenformin; first compound 2 µM) | relative viability (Irinotecan + Phenformin; first compound 6.325 µM) | relative viability (Irinotecan + Phenformin; first compound 20 µM) | relative viability (Irinotecan + Olaparib; first compound 0.6325 µM) | relative viability (Irinotecan + Olaparib; first compound 2 µM) | relative viability (Irinotecan + Olaparib; first compound 6.325 µM) | relative viability (Irinotecan + Olaparib; first compound 20 µM) | relative viability (MK-8033 + Phenformin; first compound 0.02 µM) | relative viability (MK-8033 + Phenformin; first compound 0.06325 µM) | relative viability (MK-8033 + Phenformin; first compound 0.2 µM) | relative viability (MK-8033 + Phenformin; first compound 0.6325 µM) | relative viability (MK-8033 + Phenformin; first compound 2 µM) |
| --- | --- | --- | --- | --- | --- | --- | --- | --- | --- | --- | --- | --- | --- | --- | --- | --- | --- | --- |
| NCI-H441 | 0.192 | 0.278 | 0.205 | 0.229 | 0.146 | 0.566 | 0.759 | 0.299 | 0.224 | 0.243 | 0.241 | 0.256 | 0.229 | 0.997 | 0.739 | 0.645 | 0.955 | 0.732 |
| Calu-6 |  |  |  |  |  |  |  |  |  | 0.258 | 0.326 | 0.225 | 0.128 |  |  |  |  |  |
| CAL-12T | 0.413 | 0.474 | 0.365 | 0.457 | 0.391 |  | 0.668 | 0.275 | 0.186 | 0.494 | 0.44 | 0.288 | 0.297 | 0.56 | 0.518 | 0.444 | 0.697 | 0.545 |
| HCC-78 | 0.43 | 0.408 | 0.533 | 0.461 | 0.503 | 0.733 | 0.546 | 0.257 | 0.229 | 0.492 | 0.332 | 0.233 | 0.343 | 0.806 |  | 0.668 | 0.728 | 0.799 |
| NCI-H2170 | 0.394 | 0.467 | 0.419 | 0.453 | 0.372 | 0.389 | 0.424 | 0.202 | 0.174 | 0.173 | 0.184 | 0.121 | 0.102 | 0.447 | 0.424 | 0.374 | 0.407 | 0.399 |

Source: the supplement of paper PMC10307832
